Laboratory results: US8741934B2, “Inhibitors of ion channels” (Pfizer Limited, priority 2007, dated 2014)

Molecular target: T1, hSCN3A sodium channels (Homo sapiens, UniProt Q9NY46)
T1 construct: expressed in transfected cells
Test: hSCN3A electrophysiology, Ionworks Quattro automated platform (Table C)
Type: cell-based
Details: for inhibition at 3 µM: 3 μM compound, read-out: SCN3A % INHIB HTS IWQ 3 μM; for inhibition at 10 µM: 10 μM compound, read-out: SCN3A % INHIB HTS IWQ 10 μM
Method: Human Embryonic Kidney (HEK) cells were transfected with an hSCN3A construct using lipofectamine reagent (Invitrogen), using standard techniques. […] Clones were screened for expression using the whole-cell voltage-clamp technique.
HEK cells stably transfected with hSCN3A were maintained in DMEM medium supplemented with 10% heat-inactivated fetal bovine serum and 400 μg/ml G418 sulfate in an incubator at 37° C. with a humidified atmosphere of 10% CO2. […] For electrophysiological studies, cells were removed from the culture flask by brief trypsinization and replated at low density onto glass cover slips. Cells were typically used for electrophysiological experiments within 24 to 72 h after plating.
Electrophysiological assays were also conducted using the Ionworks Quattro automated electrophysiological platform (Molecular Devices Corp) (Table C). Intracellular and extracellular solutions were as described above with the following changes, 100 μg/ml amphotericin was added to the intracellular solution to perforate the membrane and allow electrical access to the cells. hSCN3A cells were grown and harvested as for PatchXpress and cells were resuspended in extracellular solution at a concentration of 3-4×10^6 cells/ml. The onboard liquid handling facility of the Ionworks Quattro was used for dispensing cells and application of test compounds. A voltage protocol was then applied that comprised of a voltage step to fully inactivate the sodium channels, followed by a brief hyperpolarized recovery period to allow partial recovery from inactivation for unblocked sodium channels, followed by a test depolarized voltage step to assess magnitude of inhibition by test compound. Compound effect was determined based on current amplitude difference between the pre-compound addition and post-compound addition scans.

T1 sequence (Q9NY46 whole entry): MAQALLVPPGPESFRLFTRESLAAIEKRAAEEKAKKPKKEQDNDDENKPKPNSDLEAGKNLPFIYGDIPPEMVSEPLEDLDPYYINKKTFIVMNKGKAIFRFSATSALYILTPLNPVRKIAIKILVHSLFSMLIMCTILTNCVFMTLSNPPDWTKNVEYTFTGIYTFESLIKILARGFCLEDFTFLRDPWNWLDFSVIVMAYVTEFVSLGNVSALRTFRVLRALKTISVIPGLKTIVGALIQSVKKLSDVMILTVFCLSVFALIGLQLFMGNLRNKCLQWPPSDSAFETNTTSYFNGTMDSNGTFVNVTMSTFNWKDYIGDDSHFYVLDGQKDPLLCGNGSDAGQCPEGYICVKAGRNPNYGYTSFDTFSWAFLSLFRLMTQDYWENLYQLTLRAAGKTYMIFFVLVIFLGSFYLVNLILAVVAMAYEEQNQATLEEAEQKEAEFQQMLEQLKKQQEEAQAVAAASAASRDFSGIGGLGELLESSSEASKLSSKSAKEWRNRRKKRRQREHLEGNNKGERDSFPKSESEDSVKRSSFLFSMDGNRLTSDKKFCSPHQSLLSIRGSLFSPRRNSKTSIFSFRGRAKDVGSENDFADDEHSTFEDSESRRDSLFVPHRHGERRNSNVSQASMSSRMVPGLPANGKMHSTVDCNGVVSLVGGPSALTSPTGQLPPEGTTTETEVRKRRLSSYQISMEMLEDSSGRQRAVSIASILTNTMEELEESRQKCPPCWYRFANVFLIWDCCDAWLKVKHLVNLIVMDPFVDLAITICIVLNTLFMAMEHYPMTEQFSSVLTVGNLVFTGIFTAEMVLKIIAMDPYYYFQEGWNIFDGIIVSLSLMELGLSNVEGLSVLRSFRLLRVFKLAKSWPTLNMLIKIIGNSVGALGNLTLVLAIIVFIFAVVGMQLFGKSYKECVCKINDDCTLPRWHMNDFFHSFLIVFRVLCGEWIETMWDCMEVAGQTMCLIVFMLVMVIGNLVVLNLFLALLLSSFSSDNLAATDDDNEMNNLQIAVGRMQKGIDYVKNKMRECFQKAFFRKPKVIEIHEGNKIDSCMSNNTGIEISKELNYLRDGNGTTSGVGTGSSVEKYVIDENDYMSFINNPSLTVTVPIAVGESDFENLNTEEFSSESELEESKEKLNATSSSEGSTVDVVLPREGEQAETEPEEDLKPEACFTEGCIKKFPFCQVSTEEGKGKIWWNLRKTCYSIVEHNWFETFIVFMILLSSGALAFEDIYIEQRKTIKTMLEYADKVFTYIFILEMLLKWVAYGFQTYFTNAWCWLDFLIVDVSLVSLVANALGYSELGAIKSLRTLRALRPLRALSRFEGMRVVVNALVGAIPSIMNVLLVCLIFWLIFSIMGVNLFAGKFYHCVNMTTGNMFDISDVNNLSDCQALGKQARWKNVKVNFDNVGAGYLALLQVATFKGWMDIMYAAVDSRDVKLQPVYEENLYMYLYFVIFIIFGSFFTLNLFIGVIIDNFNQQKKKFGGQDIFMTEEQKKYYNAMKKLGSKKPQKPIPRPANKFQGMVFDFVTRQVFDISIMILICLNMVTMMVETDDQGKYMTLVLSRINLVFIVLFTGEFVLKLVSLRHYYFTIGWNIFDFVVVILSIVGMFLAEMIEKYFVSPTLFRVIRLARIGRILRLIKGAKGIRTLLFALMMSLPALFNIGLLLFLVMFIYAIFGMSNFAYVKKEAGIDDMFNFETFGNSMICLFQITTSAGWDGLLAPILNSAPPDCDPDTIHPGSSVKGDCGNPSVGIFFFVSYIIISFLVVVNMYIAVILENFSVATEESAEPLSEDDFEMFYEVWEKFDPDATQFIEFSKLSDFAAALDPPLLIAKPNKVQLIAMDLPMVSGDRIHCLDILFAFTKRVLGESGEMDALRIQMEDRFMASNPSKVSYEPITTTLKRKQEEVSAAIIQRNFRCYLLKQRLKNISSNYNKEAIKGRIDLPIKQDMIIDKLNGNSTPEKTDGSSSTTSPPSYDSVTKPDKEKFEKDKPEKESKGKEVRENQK

Compound	inhibition at 3 µM	inhibition at 10 µM	SCN3A INHIB INACT DRC EP IWQ EMAX (Emax of dose-response curve, inactivated state)	IC50 (read-out: SCN3A IWQ IC-50)
O=C(c1ccc(S(=O)(=O)Nc2nccs2)cc1)N(Cc1ccccc1)[C@@H]1CCCC[C@@H]1CO [Example 226, N-benzyl-N-[(1R,2S)-2-(hydroxymethyl)cyclohexyl]-4-[(1,3-thiazol-2-ylamino)sulfonyl]benzamide]	-1.52%	13.9%		
O=C(c1ccc(S(=O)(=O)Nc2nccs2)cc1)N1CCCCC1c1ccccn1 (stereo not shown) [Example 238, 4-[(2-Pyridin-2-ylpiperidin-1-yl)carbonyl]-N-1,3-thiazol-2-yl-benzenesulfonamide]	3.68%	9.77%		
O=C(NCC1(c2ccccc2)CCCC1)c1ccc(S(=O)(=O)Nc2nccs2)cc1 [Example 121, N-[(1-phenylcyclopentyl)methyl]-4-[(1,3-thiazol-2-ylamino)sulfonyl]benzamide]	31.1%	30.2%		
O=C(c1ccc(S(=O)(=O)Nc2nccs2)cc1)N1CCOCC(O)(Cc2ccccc2)C1 (stereo not shown) [Example 258, 4-[(6-Benzyl-6-hydroxy-1,4-oxazepan-4-yl)carbonyl]-N-1,3-thiazol-2-yl-benzenesulfonamide]	0.17%	12%		
CCN(C(=O)c1ccc(S(=O)(=O)Nc2nccs2)cc1)[C@H](CO)c1ccccc1 [Example 219, N-ethyl-N-[(1S)-2-hydroxy-1-phenylethyl]-4-[(1,3-thiazol-2-yl-amino)sulfonyl]benzamide]	13.1%	1.08%		
O=C(c1ccccc1)C1CCCN(C(=O)c2ccc(S(=O)(=O)Nc3nccs3)cc2)C1 (stereo not shown) [Example 253, 4-[(3-Benzoylpiperidin-1-yl)carbonyl]-N-1,3-thiazol-2-yl-benzenesulfonamide]	5.99%	31.3%		
O=C(N[C@@H]1COC[C@@H]1c1ccc(F)cc1)c1ccc(S(=O)(=O)Nc2nccs2)cc1 [Example 179, N-[(3S,4R)-4-(4-fluorophenyl)tetrahydrofuran-3-yl]-4-[(1,3-thiazol-2-ylamino)sulfonyl]benzamide]	9.95%	15.9%		
O=C(c1ccc(S(=O)(=O)Nc2nccs2)cc1)N1CCC(COCC2CC2)C1 (stereo not shown) [Example 269, 4-({3-[(Cyclopropylmethoxy)methyl]pyrrolidin-1-yl}carbonyl)-N-1,3-thiazol-2-yl-benzenesulfonamide]	0.37%	16.5%		
Cc1cccc(C2CCCN2C(=O)c2ccc(S(=O)(=O)Nc3nccs3)cc2)c1 (stereo not shown) [Example 228, 4-{[2-(3-Methylphenyl)pyrrolidin-1-yl]carbonyl}-N-1,3-thiazol-2-yl-benzenesulfonamide]	19.3%	3.53%		
O=C(N[C@@H](CO)Cc1ccccc1)c1ccc(S(=O)(=O)Nc2nccs2)cc1 [Example 185, N-[(1R)-1-benzyl-2-hydroxyethyl]-4-[(1,3-thiazol-2-ylamino)sulfonyl]benzamide]	20.9%	20.8%		
O=C(c1ccc(S(=O)(=O)Nc2nccs2)cc1)N(Cc1ccc(F)cc1)C1CC1 [Example 230, N-cyclopropyl-N-(4-fluorobenzyl)-4-[(1,3-thiazol-2-yl-amino)sulfonyl]benzamide]	16.7%	-0.51%		
O=C(NCc1ccccc1OC(F)F)c1ccc(S(=O)(=O)Nc2nccs2)cc1 [Example 66, N-[2-(difluoromethoxy)benzyl]-4-[(1,3-thiazol-2-ylamino)sulfonyl]benzamide]	16.4%	34.4%		
COCCCOC1CCCN(C(=O)c2ccc(S(=O)(=O)Nc3nccs3)cc2)C1 (stereo not shown) [Example 260, 4-{[3-(3-Methoxypropoxy)piperidin-1-yl]carbonyl}-N-1,3-thiazol-2-yl-benzenesulfonamide]	-3.05%	10.5%		
O=C(c1ccc(S(=O)(=O)Nc2nccs2)cc1)N(Cc1ccccc1)[C@@H](CO)c1ccccc1 [Example 208, N-benzyl-N-[(1R)-2-hydroxy-1-phenylethyl]-4-[(1,3-thiazol-2-yl-amino)sulfonyl]benzamide]	3.57%	-14.2%		
O=C(NCc1cc(C(F)(F)F)ccc1F)c1ccc(S(=O)(=O)Nc2nccs2)cc1 [Example 76, N-[2-fluoro-5-(trifluoromethyl)benzyl]-4-[(1,3-thiazol-2-ylamino)sulfonyl]benzamide]	35.8%	52.1%		
CC(Cc1ccc(F)cc1)NC(=O)c1ccc(S(=O)(=O)Nc2nccs2)cc1 (stereo not shown) [Example 149, N-[2-(4-fluorophenyl)-1-methylethyl]-4-[(1,3-thiazol-2-ylamino)sulfonyl]benzamide]	12.5%	14.6%		

Compound	inhibition at 3 µM	inhibition at 10 µM	SCN3A INHIB INACT DRC EP IWQ EMAX (Emax of dose-response curve, inactivated state)	IC50 (read-out: SCN3A IWQ IC-50)
Cc1cc(C)nc(CC2CCCCCN2C(=O)c2ccc(S(=O)(=O)Nc3nccs3)cc2)c1 (stereo not shown) [Example 246, 4-({2-[(4,6-Dimethylpyridin-2-yl)methyl]azepan-1-yl}carbonyl)-N-1,3-thiazol-2-yl-benzenesulfonamide]	-0.31%	-1.47%		
O=C(NCc1c(F)cccc1C(F)(F)F)c1ccc(S(=O)(=O)Nc2nccs2)cc1 [Example 84, N-[2-fluoro-6-(trifluoromethyl)benzyl]-4-[(1,3-thiazol-2-ylamino)sulfonyl]benzamide]	17.7%	22.2%		
O=C(NCc1cccc(Cl)c1)c1ccc(S(=O)(=O)Nc2nccs2)cc1 [Example 152, N-(3-chlorobenzyl)-4-[(1,3-thiazol-2-ylamino)sulfonyl]benzamide]	42.2%	56.3%		
COc1ccc(CC2CCCN2C(=O)c2ccc(S(=O)(=O)Nc3nccs3)cc2)cc1 (stereo not shown) [Example 206, 4-{[2-(4-Methoxybenzyl)pyrrolidin-1-yl]carbonyl}-N-1,3-thiazol-2-yl-benzenesulfonamide]	4.17%	16.7%		
O=C(c1ccc(S(=O)(=O)Nc2nccs2)cc1)N1CCCCC1COc1ccccc1 (stereo not shown) [Example 224, 4-{[2-(Phenoxymethyl)piperidin-1-yl]carbonyl}-N-1,3-thiazol-2-yl-benzenesulfonamide]	3.47%	9.34%		
O=C(N[C@@H]1CCC[C@@H]1c1ccccc1)c1ccc(S(=O)(=O)Nc2nccs2)cc1 [Example 138, N-[(1R,2R)-2-phenylcyclopentyl]-4-[(1,3-thiazol-2-ylamino)sulfonyl]benzamide]	16.2%	11.2%		
Cc1ccc(C)c(C2CCCN2C(=O)c2ccc(S(=O)(=O)Nc3nccs3)cc2)c1 (stereo not shown) [Example 202, 4-{[2-(2,5-Dimethylphenyl)pyrrolidin-1-yl]carbonyl}-N-1,3-thiazol-2-yl-benzenesulfonamide]	15.8%	13.7%		
O=C(c1ccc(S(=O)(=O)Nc2nccs2)cc1)N1CCCCCC1c1ccccn1 (stereo not shown) [Example 255, 4-[(2-Pyridin-2-ylazepan-1-yl)carbonyl]-N-1,3-thiazol-2-yl-benzenesulfonamide]	4.16%	6.56%		
C[C@@H]([C@H](O)c1ccccc1)N(C)C(=O)c1ccc(S(=O)(=O)Nc2nccs2)cc1 [Example 188, N-[(1S,2R)-2-hydroxy-1-methyl-2-phenylethyl]-N-methyl-4-[(1,3-thiazol-2-ylamino)sulfonyl]benzamide]	14.5%	1.03%		
O=C(NCc1cc(F)ccc1F)c1ccc(S(=O)(=O)Nc2nccs2)cc1 [Example 87, N-(2,5-difluorobenzyl)-4-[(1,3-thiazol-2-ylamino)sulfonyl]benzamide]	36.9%	46.2%		
O=C(N[C@@H]1CCC[C@@H]1c1ccc(F)cc1)c1ccc(S(=O)(=O)Nc2nccs2)cc1 [Example 132, N-[(1R,2R)-2-(4-fluorophenyl)cyclopentyl]-4-[(1,3-thiazol-2-ylamino)sulfonyl]benzamide]	19.7%	15.3%		
CC(CNC(=O)c1ccc(S(=O)(=O)Nc2nccs2)cc1)Oc1ccccc1 (stereo not shown) [Example 161, N-(2-phenoxypropyl)-4-[(1,3-thiazol-2-ylamino)sulfonyl]benzamide]	30.3%	32.4%		
O=C(NC(c1c(F)cccc1F)C1CC1)c1ccc(S(=O)(=O)Nc2nccs2)cc1 (stereo not shown) [Example 140, N-[cyclopropyl(2,6-difluorophenyl)methyl]-4-[(1,3-thiazol-2-ylamino)sulfonyl]benzamide]	2.34%	18.9%		
O=C(c1ccc(S(=O)(=O)Nc2nccs2)cc1)N1CCCC(COc2cc(F)cc(F)c2)C1 (stereo not shown) [Example 271, 4-({3-[(3,5-Difluorophenoxy)methyl]piperidin-1-yl}carbonyl)-N-1,3-thiazol-2-yl-benzenesulfonamide]	35.8%	41.4%	52.4	26.4 µM
O=C(c1ccc(S(=O)(=O)Nc2nccs2)cc1)N1CCOCC(Cc2ccc(F)cn2)C1 (stereo not shown) [Example 216, 4-({6-[(5-Fluoropyridin-2-yl)methyl]-1,4-oxazepan-4-yl}carbonyl)-N-1,3-thiazol-2-yl-benzenesulfonamide]	10.8%	6.67%		
